# “And” between values parts separate entries of the source, which are not always exact repeats. Identical values can stand only once. Marks after values point to notes of the source that are not given here.
# Legend:
# [1] = PAMPA test (hexadecane membrane), passive gastrointestinal absorption; format: in vitro ADME; conditions: for Papp at 5 h, 0.05 mM / –logPe: donor pH 5.5, acceptor pH 7.4, 5 h, room temperature; for Papp at 5 h, 0.05 mM: read-out: Pe (effective passive permeability coefficient)
# Experimental: The PAMPA test uses a 96-well plate coated with an impregnated filter material, forming an artificial membrane that separates donor and acceptor compartments. Egg lecithin in dodecane is commonly used to simulate membrane lipids, while hexadecane is effective for mimicking gastrointestinal membranes. […] Therefore, hexadecane dissolved in hexane was chosen in this study.
# The phosphate buffer solution was prepared by dissolving 0.5292 g of NaH2PO4 × H2O and 0.0234 g of Na2HPO4 in purified water (200 mL). The phosphate buffer was divided into two portions, and the pH was adjusted to pH 5.5 and pH 7.4 using o-phosphoric acid. The donor solutions were prepared by diluting the stock solutions (5 mM DMSO solutions) with the buffer pH 5.5 to obtain the final concentration of 0.05 mM (the DMSO concentration in the donor solutions was 1%), while the acceptor solution was prepared as a 1% DMSO solution in the buffer pH 7.4. The use of DMSO as a cosolvent in PAMPA is necessary in cases of low-soluble compounds. It is usually used in concentrations up to 5% [25, 55, 56, 57].
# The PAMPA test was performed according to the literature procedure using a 96-well microtiter polycarbonate filter plate (Merck Millipore, Carrigtwohill, Ireland) that was impregnated with 15 µL of a hexadecane/hexane (5:95, v/v) solution [52]. Donor solutions (300 µL per well) were transferred into each well of the donor plate. Acceptor solution was transferred into each well (300 µL per well) of the acceptor plate (MSSACCEPTOR, Millipore, Burlington, MA, USA) and covered by the donor plate to create a PAMPA sandwich. The system was incubated at room temperature for 5 h at a vibratory mixer. After incubation, the PAMPA sandwich was dissociated, and concentrations of all tested compounds in each well, as well as in the starting solutions, were determined using the HPLC method (Section 3.3.1).
# The concentrations of tested compounds in the starting solutions, as well as in the donor and acceptor sections after incubation, were determined by the HPLC method on the Dionex Ultimate 3000 (Thermo Fisher Scientific, Waltham, MA, USA) equipped with a quaternary pump, autosampler, and DAD detector using a ZORBAX Eclipse XDB-C18 4.6 × 150 mm, 5 µm column (Agilent Technologies, Santa Clara, CA, USA).
# R represents the retention, which is defined as the fraction of the tested compound retained in the PAMPA membrane (filters and plate materials), CD(t) is the concentration of a tested compound in a donor compartment after incubation time t, CA(t) is the concentration of a tested compound in an acceptor compartment after incubation time t, while CD(0) represents the concentration of a tested compound in a donor compartment at the beginning of the incubation (starting solution).
# [2] = target: T1, human serum albumin (HSA) (Homo sapiens, UniProt P02768); test: Differential pulse voltammetry (DPV), interaction with HSA; format: binding; conditions: compound 0.05 mmol/L, PBS pH 7.4, HSA 0.05–10 μmol/L; for fraction unbound at 0.05 mmol/L: human, human serum albumin solution in PBS, read-out: % Bound Drug (converted)
# T1 construct: purchased Sigma-Aldrich
# Experimental: The electrochemical oxidation of the tested compounds at a concentration of 0.05 mmol/L in PBS buffer pH 7.4 was investigated by differential pulse voltammetry (DPV). […] For all tested compounds, a preliminary study of the interaction with HSA was performed at a concentration of 0.05 mmol/L and different HSA concentrations (0.05–10 μmol/L) using DPV. […] It has been reported that the shift in the potential of an electroactive ligand is a suitable criterion to determine the mode of the macromolecule–ligand interaction. In this context, a positive shift in potential is an indication of hydrophobic interaction of investigated compounds with HSA [34]. The decrease in peak current could be due to the formation of a non-electroactive supramolecular compound by the drug–protein interaction, which reduces the concentration of free drug.
# The voltammetric measurements were carried out with the µAutolab analyzer (EcoChemie, Utrecht, The Netherlands). A three-electrode system with a GCE working electrode, an Ag/AgCl reference electrode, and a Pt-auxiliary electrode was used. Before each experiment, the GCE was manually polished with an aqueous slurry of Al2O3 powder (particle size of 0.05 μm) on a smooth polishing pad, sonicated in deionized water, and then treated in absolute ethanol. Phosphate buffer saline (PBS) pH 7.4 was used as the supporting electrolyte. The experiments were carried out with deaerated PBS buffer. A stock solution of HSA in PBS at a concentration of 0.1 mmol/L was used. […] The interaction between tested compounds and HSA was examined in PBS solution, using solutions of tested compounds in a concentration of 0.05 mmol/L and HSA solution with a concentration in the range of 0.05–10 μmol/L.
# The percentage of free compound (Equation (4)) was calculated from the ratio of the current intensity (IINT) for a given compound concentration (0.05 mmol/L) in the presence of albumin to the signal obtained at the same compound concentration only in the presence of the supporting electrolyte (PBS buffer) (IC).
# [3] = Stability in acidic medium (0.01 M HCl); format: physicochemical; conditions: for The Decrease in Peak Area (%): 0.01 M HCl pH 2, 2 h; for Peak Area, t: 0.01 M HCl pH 2, after 2 h; for Peak Area, t0: 0.01 M HCl pH 2, start of incubation
# Experimental: In order to test gastric stability, compounds were incubated in 0.01 M HCl (pH = 2) for 2 h. Moreover, 0.01 M HCl was chosen because this acid is naturally present in the stomach and simulates its pH (between 1 and 3), while incubation time (2 h) corresponds to the average retention of drugs in the stomach after an oral administration. Peak areas at the beginning (t0) and at the end of the incubation (t) and the decrease in peak areas between these two time points are presented in Table 5.
# Acidic medium was simulated by a 0.01 M HCl solution, which was prepared by diluting 0.1 M HCl with distilled water. Stock solutions of tested compounds (5 mM DMSO solutions) were diluted with the medium to obtain a concentration of 0.05 mM. Tested compounds were investigated immediately after preparation (t0) and after a defined incubation time (t) by injecting these solutions into the HPLC chromatograph in duplicates (the HPLC method used was the same as described in Section 3.3.1). The difference between peak areas at t0 and t time points and the eventual occurrence of additional chromatographic peaks after incubation were analyzed.
# Solubility in water = format: physicochemical; conditions: distilled water, thermodynamic from solid, room temperature
# Experimental: As discussed in the previous section, all tested compounds are dominantly unionized in the whole range of physiologically important pH values (2 < pH ≤ 7.4). Therefore, water was used for the determination of solubility. […] According to USP34, all tested compounds can be defined as practically insoluble since their solubilities are ≤100 mg/L [54].
# Solubility of tested compounds was investigated at room temperature. Compounds were weighed on a scale (5 mg each) and transferred to flasks. In a stepwise procedure, increasing volumes of distilled water were added, and after each addition of an amount of water, the mixture was placed on an ultrasound bath for 5 min and visually inspected for undissolved parts of the sample. When no […] could be observed, the mixture was transferred into a glass cylinder, and opalescence was compared with water. If the mixture was not more opalescent than the solvent, the solvation was considered to be achieved. Solubility of a compound is defined according to the amount of solvent required to dissolve 1 mg.
# T1 sequence (P02768 25-609): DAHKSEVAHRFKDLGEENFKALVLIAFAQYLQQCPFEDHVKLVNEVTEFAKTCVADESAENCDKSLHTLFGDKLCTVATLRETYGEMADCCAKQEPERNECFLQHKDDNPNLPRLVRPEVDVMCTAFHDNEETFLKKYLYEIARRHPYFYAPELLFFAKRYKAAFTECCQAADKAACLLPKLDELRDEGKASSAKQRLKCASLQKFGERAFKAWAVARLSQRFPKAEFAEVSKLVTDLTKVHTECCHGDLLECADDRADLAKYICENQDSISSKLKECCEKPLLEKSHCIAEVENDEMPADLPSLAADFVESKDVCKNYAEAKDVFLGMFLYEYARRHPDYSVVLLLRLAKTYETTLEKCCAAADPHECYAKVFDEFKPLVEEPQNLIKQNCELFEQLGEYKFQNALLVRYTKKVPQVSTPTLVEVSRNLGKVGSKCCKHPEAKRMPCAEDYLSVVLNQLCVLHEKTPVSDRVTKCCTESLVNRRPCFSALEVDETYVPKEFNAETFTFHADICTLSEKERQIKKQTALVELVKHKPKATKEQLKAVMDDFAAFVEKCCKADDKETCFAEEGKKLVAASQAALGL
Structure (SMILES),"Papp at 5 h, 0.05 mM ([1]; PAMPA)","ΔE, DPV peak potential shift after interaction with HSA [2]",fraction unbound at 0.05 mmol/L [2],The Decrease in Peak Area (%) [3],"Peak Area, t [3]","Peak Area, t0 [3]",solubility at 5 min (Solubility in water),–logPe [1],Membrane retention (R) ([1]; PAMPA)
COc1ccc2c(c1)c(CNC(=O)NO)c(C)n2C(=O)c1ccc(Cl)cc1 [Compound 1],42.9 ×10⁻⁶ cm/s,34 mV,0.267,0.07 (p = 0.2839) ^a %,8.27 ± 0.00,8.28 ± 0.01,1.5 µg/mL,–,–
CC(NC(=O)NO)c1ccc(-c2ccccc2)c(F)c1 (stereo not drawn) [Compound 2],17.6 ×10⁻⁶ cm/s,30 mV,0.198,0.34 (p = 0.4501) %,6.55 ± 0.07,6.57 ± 0.12,14.3 µg/mL,–,–
O=C(NO)NCc1ccccc1Nc1c(Cl)cccc1Cl [Compound 3],77.3 ×10⁻⁶ cm/s,29 mV,0.198,2.33% and 2.33 (p = 0.0159) %,6.27 ± 0.10,6.42 ± 0.11,5.45 µg/mL,4.11 ± 0.02,–

# Results, then the compound that gave them:
"Papp at 5 h, 0.05 mM ([1]; PAMPA)","ΔE, DPV peak potential shift after interaction with HSA [2]",fraction unbound at 0.05 mmol/L [2],The Decrease in Peak Area (%) [3],"Peak Area, t [3]","Peak Area, t0 [3]",solubility at 5 min (Solubility in water),–logPe [1],Membrane retention (R) ([1]; PAMPA),Structure (SMILES)
146 ×10⁻⁶ cm/s,7 mV,0.292,1.63 (p = 0.073) %,10.83 ± 0.03,11.01 ± 0.02,19.4 µg/mL,3.84 ± 0.05,24%,CC(=O)N(O)C(C)c1ccc(CC(C)C)cc1 (stereo not drawn) [Compound 11]
157 ×10⁻⁶ cm/s,13 mV,0.296,0.24 (p = 0.4399) %,48.54 ± 0.39,48.66 ± 0.49,11.8 µg/mL,3.81 and 3.81 ± 0.04,–,COc1ccc2cc(C(C)N(O)C(C)=O)ccc2c1 (stereo not drawn) [Compound 12]

# Reference: article PMC11510591, “In Vitro Evaluation of Pharmacokinetic Properties of Selected Dual COX-2 and 5-LOX Inhibitors” (Pharmaceuticals, 2024)
